Assays:
[1] = Catalysis of toluene diisocyanate condensation to cellular/resinous carbodiimide products (Table I); details: 100 parts toluene diisocyanate
Protocol: Utilizing the triazines of Examples III-VI hereof, a series of cellular and resinous products characterized by carbodiimide linkages, as defined in the above-referred to patents, were prepared by the following procedure:
(§1) One hundred parts of toluene diisocyanate was admixed with a catalyst in accordance herewith. With stirring, the admixture was heated to its reaction initiation temperature at which time the reactants were transferred to a separate container for foaming.

[2] = Efficacy of triazine catalysts with 1 part methanol in the catalyst blend (Table II); details: 1 part of methanol introduced into the catalyst blend
Protocol: as §1
To test the efficacy of the instant catalysts, samples analogous to samples C, D and Control were prepared, but wherein 1 part of methanol was introduced into the catalyst blend.

Structure (SMILES) | Initiation Temperature ([1]; catalyst 2.0 parts) [°C] | Max. Exotherm ([1]; catalyst 2.0 parts) [°C] | Nature of Product ([1]; catalyst 2.0 parts) | Initiation Temperature ([1]; catalyst 1.0 part) [°C] | Max. Exotherm ([1]; catalyst 1.0 part) [°C] | Nature of Product ([1]; catalyst 1.0 part) | Initiation Temp. [2] [°C] | Maximum Exotherm [2] [°C] | Nature of Product [2]
CN(C)CCCN(CCO)c1nc(N(CCO)CCCN(C)C)nc(N(CCO)CCCN(C)C)n1 [Example III, 2,4,6-tris[3-dimethylamino-N-(2-hydroxyethyl)propylamino]-s-triazine] | 95 | 180 | Foam |  |  |  |  |  | 
CCN(CC)CCN(C)c1nc(N(C)CCO)nc(N(C)CCN(CC)CC)n1 [Example VI, 2,4-bis(N-methyl-2-diethylaminoethylamino)-6-(N-methyl-2-hydroxyethylamino)-s-triazine] |  |  |  | 94 | 140 | Resin | 25 | 177 | Foam
CCCCN(CCCC)c1nc(N(CCO)CCCN(C)C)nc(N(CCCC)CCCC)n1 [Example V, 2,4-bis(dibutylamino)-6-[3-dimethylamino-N-(2-hydroxyethyl)propylamino]-s-triazine] |  |  |  | 95 | 197 | Resin | 25 |  | Foam
CN(C)CCCN(CCCN(C)C)c1nc(N(C)CCO)nc(N(CCCN(C)C)CCCN(C)C)n1 [Example IV, 2,4-bis[bis(3-dimethylaminopropyl)amino]-6-(N-methyl-2-hydroxyethylamino)-s-triazine] | 100 | 188 | Foam |  |  |  |  |  | 
CCN(CC)c1nc(N(C)CCO)nc(N(CC)CC)n1 [DMT, 2,4-bis(diethylamino)-6-N-methylethanolamine-s-triazine, reference compound] |  |  |  | 124 | 185 | Foam | 25 |  | No Foam

— patent publication US3988337A, “Substituted triamino-s-triazines” (BASF Wyandotte Corporation, priority 1974, dated 1976)
